Measurements: patent US20160038468A1 (priority 2013, published 2016)
≈ marks a conversion by molar mass, not a printed value. Like-named read-outs stand apart in the source and are kept apart here.

Key:
Prevotella bivia = assay: Agar dilution MIC (CLSI), Prevotella bivia vaginal isolates; format: cell-based; conditions: for MIC: read-out: Minimal Inhibitory Concentration (MIC)
vaginal infections = conditions: daily dosage less than 100 mg/day; cited from earlier work
Lactobacilli = conditions: pathogens: Gardnerella vaginalis, Mobiluncus spp, Bacteroides bivius-disiens; cited from earlier work
[1] = system: bacterial vaginosis (BV) related organisms; assay: Agar dilution MIC (CLSI), 411 vaginal BV related organisms overall; format: cell-based
Method: The method used was the reference method approved by the Clinical and Laboratory Standards Institute (CLSI). The CLSI is considered the gold standard for determining the lowest concentration of an antimicrobial agent that prevents growth of a microorganism in an agar dilution susceptibility test referred to as the minimal inhibitory concentration (MIC).
A total of 411 unique microbial isolates recovered from the human vagina of US women from a period of time from 2009 to 2012 were tested for antimicrobial susceptibility by the agar dilution method. A total of 13 analytical runs were conducted in order to analyze all of the samples. See, Example 1.
A total of 411 unique microbial isolates recovered from the human vagina from 2009-2012 were tested for antimicrobial susceptibility by the agar dilution method. This procedure followed the guidelines of the Clinical Laboratory Standard Institute reference agar dilution method (CLSI).
The MIC endpoint was read on the test plate. The MIC is that concentration at which a marked reduction occurs in the appearance of growth on the test plate as compared to the amount that of growth on the control plate. Examples of a marked change in growth include a change from confluent growth to a haze, less than 10 tiny colonies, or one to three normal sized colonies. The illustrated figures found in the CLSI manual should be used as a guide.

[2] = system: Clostridium difficile, ATCC 700057; conditions: agar dilution testing, from CLSI Table 5; cited from earlier work
Anaerococcus tetradius = assay: Agar dilution MIC (CLSI), Anaerococcus tetradius vaginal isolates; format: cell-based; conditions: for MIC: read-out: Minimal Inhibitory Concentration (MIC); for Number of strains with indicated MIC: 21 samples
[3] = Anaerococcus tetradius, # tested 21

Question: For `CO[C@H]1/C=C/O[C@@]2(C)Oc3c(C)c(O)c4c(O)c(c5c(nc6cc(C)ccn65)c4c3C2=O)NC(=O)/C(C)=C\C=C\[C@H](C)[C@H](O)[C@@H](C)[C@@H](O)[C@@H](C)[C@H](OC(C)=O)[C@@H]1C` [Rifaximin], which MIC (Prevotella bivia; Prevotella bivia, isolate 601305 H) is on record?
Answer: 0.125 µg/mL (≈ 0.159 µM)

Question: What about the MIC (Prevotella bivia; Prevotella bivia, isolate 601340 31) of the same molecule?
Answer: 0.25 µg/mL (≈ 0.318 µM)

Question: What about the MIC (Prevotella bivia; Prevotella bivia, isolate 601355 B) of the same molecule?
Answer: 1 µg/mL (≈ 1.27 µM)

Question: And the MIC (Prevotella bivia; Prevotella bivia, isolate 601367 M)?
Answer: 0.5 µg/mL (≈ 0.636 µM)

Question: What about the MIC (Prevotella bivia; Prevotella bivia, isolate 601374 A1) of the same molecule?
Answer: 0.25 µg/mL (≈ 0.318 µM)

Question: And the MIC (Prevotella bivia; Prevotella bivia, isolate 601378 B)?
Answer: 0.25 µg/mL (≈ 0.318 µM)

Question: And the MIC (Prevotella bivia; Prevotella bivia, isolate 601379 19)?
Answer: 0.25 µg/mL (≈ 0.318 µM)

Question: And the MIC (Prevotella bivia; Prevotella bivia, isolate 601388 T)?
Answer: 0.25 µg/mL (≈ 0.318 µM)

Question: What about the MIC (Prevotella bivia; Prevotella bivia, isolate 601389 10) of the same molecule?
Answer: 0.25 µg/mL (≈ 0.318 µM)

Question: What about the MIC (Prevotella bivia; Prevotella bivia, isolate 601389 J) of the same molecule?
Answer: 0.25 µg/mL (≈ 0.318 µM)

Question: And the MIC (Prevotella bivia; Prevotella bivia, isolate 601392 14)?
Answer: 0.125 µg/mL (≈ 0.159 µM)

Question: And the MIC (Prevotella bivia; Prevotella bivia, isolate 601409 V)?
Answer: 0.25 µg/mL (≈ 0.318 µM)

Question: And the MIC (Prevotella bivia; Prevotella bivia, isolate 601410 12)?
Answer: 0.25 µg/mL (≈ 0.318 µM)

Question: What about the MIC (Prevotella bivia; Prevotella bivia, isolate 601429 1) of the same molecule?
Answer: 0.25 µg/mL (≈ 0.318 µM)

Question: And the MIC (Prevotella bivia; Prevotella bivia, isolate 601433 19)?
Answer: 0.25 µg/mL (≈ 0.318 µM)

Question: What about the MIC (Prevotella bivia; Prevotella bivia, isolate 601449 E) of the same molecule?
Answer: 0.5 µg/mL (≈ 0.636 µM)

Question: What about the MIC (Prevotella bivia; Prevotella bivia, isolate 601453 A) of the same molecule?
Answer: 0.25 µg/mL (≈ 0.318 µM)

Question: What about the MIC (Prevotella bivia; Prevotella bivia, isolate 601455 D1) of the same molecule?
Answer: 0.25 µg/mL (≈ 0.318 µM)

Question: What about the MIC (Prevotella bivia; Prevotella bivia, isolate 601458 16) of the same molecule?
Answer: 0.25 µg/mL (≈ 0.318 µM)

Question: And the MIC50 (Prevotella bivia; Prevotella bivia, # tested 34)?
Answer: 0.25 µg/mL (≈ 0.318 µM)

Question: And the MIC90 (Prevotella bivia; Prevotella bivia, # tested 34)?
Answer: 0.5 µg/mL (≈ 0.636 µM)

Question: And the Susceptible (Prevotella bivia; number (%) of isolates, # tested 34)?
Answer: 34 (100) μg/ml

Question: And the “efficacy in the treatment of vaginal infections” value (vaginal infections)?
Answer: efficacious

Question: What about the “inhibitory action (MIC50 and MIC90) against Lactobacilli compared with action against pathogenic bacteria” value (Lactobacilli) of the same molecule?
Answer: equal to, or even higher than

Question: And the “susceptibility of pathogenic strains in respect to clindamycin” value ([1]; Prevotella, Anaerococcus, Finegoldia, Peptoniphilus and Atopobium strains)?
Answer: higher susceptibility

Question: And the “susceptibility of pathogenic strains in respect to metronidazole” value ([1]; Prevotella, Anaerococcus, Peptoniphilus, Atopobium, Megasphera and Mobiluncus strains)?
Answer: higher susceptibility

Question: What about the “efficacy against all pathogen vaginal bacteria judged from MICs, in comparison to metronidazole and clindamycin” value ([1]; in particular when Prevotella strains are present) of the same molecule?
Answer: more efficacious

Question: And the “Acceptable Range of MIC for control strain” value [2]?
Answer: 3.9 to 15.6 ng/mL

Question: What about the “MIC Range” value (Anaerococcus tetradius; # tested 21) of the same molecule?
Answer: 3.75 to 125 ng/mL

Question: What about the MIC (Anaerococcus tetradius; Anaerococcus tetradius, isolate 601098V T) of the same molecule?
Answer: 0.06 µg/mL (≈ 0.0763 µM)

Question: And the MIC (Anaerococcus tetradius; Anaerococcus tetradius, isolate 601103V 21)?
Answer: 0.06 µg/mL (≈ 0.0763 µM)

Question: What about the MIC (Anaerococcus tetradius; Anaerococcus tetradius, isolate 601175V I) of the same molecule?
Answer: 0.125 µg/mL (≈ 0.159 µM)

Question: And the MIC (Anaerococcus tetradius; Anaerococcus tetradius, isolate 601202V 11)?
Answer: 0.06 µg/mL (≈ 0.0763 µM)

Question: What about the MIC (Anaerococcus tetradius; Anaerococcus tetradius, isolate 601212V 14) of the same molecule?
Answer: 0.06 µg/mL (≈ 0.0763 µM)

Question: What about the MIC (Anaerococcus tetradius; Anaerococcus tetradius, isolate 601221V 12) of the same molecule?
Answer: 0.00375 µg/mL (≈ 0.00477 µM)

Question: What about the MIC (Anaerococcus tetradius; Anaerococcus tetradius, isolate 601222V 15) of the same molecule?
Answer: 0.06 µg/mL (≈ 0.0763 µM)

Question: What about the MIC (Anaerococcus tetradius; Anaerococcus tetradius, isolate 601242V 17) of the same molecule?
Answer: 0.06 µg/mL (≈ 0.0763 µM)

Question: What about the MIC (Anaerococcus tetradius; Anaerococcus tetradius, isolate 601256V 9) of the same molecule?
Answer: 0.06 µg/mL (≈ 0.0763 µM)

Question: What about the MIC (Anaerococcus tetradius; Anaerococcus tetradius, isolate 601287V V) of the same molecule?
Answer: 0.06 µg/mL (≈ 0.0763 µM)

Question: And the MIC (Anaerococcus tetradius; Anaerococcus tetradius, isolate 601305V J)?
Answer: 0.015 µg/mL (≈ 0.0191 µM)

Question: And the MIC (Anaerococcus tetradius; Anaerococcus tetradius, isolate 601326V H)?
Answer: 0.06 µg/mL (≈ 0.0763 µM)

Question: What about the MIC (Anaerococcus tetradius; Anaerococcus tetradius, isolate 601340V 25) of the same molecule?
Answer: 0.06 µg/mL (≈ 0.0763 µM)

Question: What about the MIC (Anaerococcus tetradius; Anaerococcus tetradius, isolate 601342V N) of the same molecule?
Answer: 0.06 µg/mL (≈ 0.0763 µM)

Question: What about the MIC (Anaerococcus tetradius; Anaerococcus tetradius, isolate 601368V 42) of the same molecule?
Answer: 0.06 µg/mL (≈ 0.0763 µM)

Question: What about the MIC (Anaerococcus tetradius; Anaerococcus tetradius, isolate 601369V 12) of the same molecule?
Answer: 0.03 µg/mL (≈ 0.0382 µM)

Question: What about the MIC (Anaerococcus tetradius; Anaerococcus tetradius, isolate 601379V 25) of the same molecule?
Answer: 0.06 µg/mL (≈ 0.0763 µM)

Question: And the MIC (Anaerococcus tetradius; Anaerococcus tetradius, isolate 601401V T)?
Answer: 0.06 µg/mL (≈ 0.0763 µM)

Question: What about the MIC (Anaerococcus tetradius; Anaerococcus tetradius, isolate 601429V 15) of the same molecule?
Answer: 0.015 µg/mL (≈ 0.0191 µM)

Question: What about the MIC (Anaerococcus tetradius; Anaerococcus tetradius, isolate 601450V 22) of the same molecule?
Answer: 0.06 µg/mL (≈ 0.0763 µM)

Question: What about the MIC (Anaerococcus tetradius; Anaerococcus tetradius, isolate 602375V 22) of the same molecule?
Answer: 0.015 µg/mL (≈ 0.0191 µM)

Question: What about the MIC50 (Anaerococcus tetradius; [3]) of the same molecule?
Answer: 0.06 µg/mL (≈ 0.0763 µM)

Question: What about the MIC90 (Anaerococcus tetradius; [3]) of the same molecule?
Answer: 0.06 µg/mL (≈ 0.0763 µM)

Question: And the “Number of strains with indicated MIC” value (Anaerococcus tetradius; MIC 0.00375 μg/ml)?
Answer: 1

Question: And the “Number of strains with indicated MIC” value (Anaerococcus tetradius; MIC 0.015 μg/ml)?
Answer: 3

Question: And the “Number of strains with indicated MIC” value (Anaerococcus tetradius; MIC 0.03 μg/ml)?
Answer: 1

Question: And the “Number of strains with indicated MIC” value (Anaerococcus tetradius; MIC 0.06 μg/ml)?
Answer: 15

Question: What about the “Number of strains with indicated MIC” value (Anaerococcus tetradius; MIC […]) of the same molecule?
Answer: 1
